Our source for the IC50 values is US20240294551A1 (AMGEN INC., priority 2022, published 2024).

pIC50: −log10 of the molar value.

The target of test [1] is His-tagged KRAS G12D protein (Homo sapiens (Human), UniProt P01116, G12D). In words: KRAS G12D TR-FRET Assay. It is filed as binding. Conditions: read-out: KRAS G12D Binding IC50. In outline: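 Each incubation ran at room temperature: enzyme with compound for 30 minutes, peptide for one hour, and detection reagents (0.4 nM europium anti-6×His, 5 nM streptavidin-d2) for one hour more. Protein and peptide stocks were each diluted to 20 nM before addition.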
A general note: Time-resolved FRET reads energy transfer from a long-lived donor to a nearby acceptor.

Test [2] addresses GDP-bound KRAS protein (aa 1-169), containing both G12D and C118A amino acid substitutions (Homo sapiens (Human), UniProt P01116, C118A/G12D). In words: KRAS G12D Coupled Nucleotide Exchange Assay. The test is classed as biochemical. To be noted: read-out: KRAS G12D Coupled Exchange IC50.
Another test concerns AsPC-1 cells. Put plainly: AsPC-1 CTG Assay (CellTiter-Glo cell viability). Conditions: Homo sapiens, ASPC1, 72 h, AsPC-1, 72 h; first value of the cell; read-out: G12D/C/V Cell Proliferation CTG (72 h) AsPC-1. It is filed as cell-based, human. In outline:
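IC50 values derive from 4-parameter logistic fits of CellTiter-Glo luminescence, expressed relative to DMSO. Compound dilution series were applied to overnight-seeded AsPC-1 or SW620 cells (RPMI 1640, 10% FBS) for 72 h at 37 °C, 5% CO2.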
A general note: ATP-based viability assays read luminescence as a measure of living cells.

Test [3] has as its system Phosphorylation of ERK1/2 in AsPC-1 cells. In words: Phospho-ERK1/2 MSD Assay. It is filed as cell-based, human. Conditions: Homo sapiens, ASPC1, 2 h, read-out: 2 h p-ERK (AsPC-1 cells), IC50. Put shortly: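 Read-out: MSD electrochemiluminescent detection of phosphorylated ERK1/2 in whole-cell lysates, fitted to a 4-parameter logistic curve for IC50. Prior to lysis, AsPC-1 cells (25,000 per well) received a 2 h compound dose-response at 37 °C.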

Sequence of His-tagged KRAS G12D protein (P01116 other isoform, or with tags, fused parts or gaps G12D): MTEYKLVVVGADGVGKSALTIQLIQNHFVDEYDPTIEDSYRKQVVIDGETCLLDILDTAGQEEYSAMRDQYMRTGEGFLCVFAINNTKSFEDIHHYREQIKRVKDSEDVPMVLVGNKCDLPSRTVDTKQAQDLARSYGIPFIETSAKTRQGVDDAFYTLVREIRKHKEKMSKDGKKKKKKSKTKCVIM
Sequence of GDP-bound KRAS protein (aa 1-169), containing both G12D and C118A amino acid substitutions (P01116 other isoform, or with tags, fused parts or gaps G12D/C118A): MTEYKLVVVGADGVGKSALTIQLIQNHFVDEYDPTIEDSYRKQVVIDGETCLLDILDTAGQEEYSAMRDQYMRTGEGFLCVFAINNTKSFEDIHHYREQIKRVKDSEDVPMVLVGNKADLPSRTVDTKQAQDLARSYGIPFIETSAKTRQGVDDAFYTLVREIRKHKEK

In the case of `Fc1c2ncc3c(nc(OC[C@@]45CCCN4C[C@H](F)C5)nc13)N1CC[C@@H](COCCCCc3c(Cl)cc4[nH]ncc4c3-2)C1` [Example 254, (17R)-9-chloro-29-fluoro-23-(((2R,7aS)-2-fluorotetrahydro-1H-pyrrolo[1,2-a]pyrrol-7a(5H)-yl)methoxy)-15-oxa-5,6,20,22,24,28-hexaazahexacyclo[23.3.1.1~17,20~.0~2,10~.0~3,7~.0~21,26~]triaconta-1(29),2,4,7,9,21,23,25,27-nonaene], the pIC50 in test [1] was 7.72; in test [2] it was 7.92; with AsPC-1 cells, 5.40; in test [3] it was 6.26.
Taken in the same sequence, the figures for `O=C1N[C@@H]2CCCCN(C2)c2nc(OC[C@@]34CCCN3C[C@H](F)C4)nc3c(F)c(ncc23)-c2c(c(Cl)cc3[nH]ncc23)CCCO1` [Example 256, (26R)-18-chloro-32-fluoro-4-(((2R,7aS)-2-fluorotetrahydro-1H-pyrrolo[1,2-a]pyrrol-7a(5H)-yl)methoxy)-23-oxa-1,3,5,9,14,15,25-heptaazahexacyclo[24.4.1.1~6, 10~.0~2,7~.0~11,19~.0~12,16~]dotriaconta-2,4,6(32),7,9,11,13,16,18-nonaen-24-one] were 8.40, 8.30, 6.64 and 8.03.
`Fc1c2ncc3c(nc(OC[C@@]45CCCN4C[C@H](F)C5)nc13)N1CCOCC(C1)Cn1ncc(n1)/C=C\c1c(Cl)cc3[nH]ncc3c1-2` (stereo partly drawn) [Example 258, (20Z)-18-chloro-34-fluoro-4-(((2R,7aS)-2-fluorotetrahydro-1H-pyrrolo[1,2-a]pyrrol-7a(5H)-yl)methoxy)-29-oxa-1,3,5,9,14,15,24,25,33-nonaazaheptacyclo[25.4.1.1~6,10~.1~22,25~.0~2,7~.0~11,19~.0~12,16~]tetratriaconta-2,4,6,8,10(34),11,13,16,18,20,22(33),23-dodecaene]: the pIC50 was 7.89 in test [1], 8.22 in test [2], 6.00 in the test with AsPC-1 cells and 7.08 in test [3].
For `CN(C)CC1(COc2nc3c4cnc(c(F)c4n2)-c2c(c(Cl)cc4[nH]ncc24)CCCCC(=O)N2CC[C@@H]4CCN3C[C@@H]42)CC1` [Example 268, (28S,32R)-18-chloro-4-((1-((dimethylamino)methyl)cyclopropyl)methoxy)-33-fluoro-1,3,5,9,14,15,25-heptaazaheptacyclo[23.5.2.1~6,10~.0~2,7~.0~11,19~.0~12,16~.0~28,32~]tritriaconta-2,4,6,8,10(33),11,13,16,18-nonaen-24-one], the pIC50 is 8.15 in test [1], 8.40 in test [2], 5.87 in the test on AsPC-1 cells and 6.61 in test [3].
Consider `O=C1CCCCc2c(Cl)cc3[nH]ncc3c2-c2ncc3c(nc(OC[C@@]45CCCN4C[C@H](F)C5)nc3c2F)N2CC3CCN1C(C3)C2` (some centres unmarked) [Example 269], for which the pIC50 in test [1] was 7.80; in test [2] it was 7.96; in the test with AsPC-1 cells, 6.22; in test [3], 6.60.
For the compound `O=C1COCCCc2c(Cl)cc3[nH]ncc3c2-c2ncc3c(nc(OC[C@@]45CCCN4C[C@H](F)C5)nc3c2F)N2CCCC[C@H](C2)N1` [Example 272, (27R)-18-chloro-33-fluoro-4-(((2R,7aS)-2-fluorotetrahydro-1H-pyrrolo[1,2-a]pyrrol-7a(5H)-yl)methoxy)-23-oxa-1,3,5,9,14,15,26-heptaazahexacyclo[25.4.1.1~6,10~.0~2,7~.0~11,19~.0~12,16~]tritriaconta-2,4,6,8,10(33),11,13,16,18-nonaen-25-one], the pIC50 in test [1] was 7.96; in test [2], 8.52; in the test on AsPC-1 cells, 5.75; in test [3], 6.60.
As to `O=C1CCCCc2c(Cl)cc3[nH]ncc3c2-c2ncc3c(nc(OC[C@@]45CCCN4C[C@H](F)C5)nc3c2F)N2CCC[C@]3(C2)C[C@H](C3)N1` [Example 273, (1S,3R)-11-chloro-33-fluoro-25-(((2R,7aS)-2-fluorotetrahydro-1H-pyrrolo[1,2-a]pyrrol-7a(5H)-yl)methoxy)-4,14,15,20,24,26,28-heptaazaheptacyclo[26.3.1.1~1,3~.1~19,23~.0~10,18~.0~13,17~.0~22,27~]tetratriaconta-10,12,15,17,19(33),20,22,24,26-nonaen-5-one], the pIC50 in test [1] is 8.52; in test [2], 8.70; with AsPC-1 cells it was 5.30; in test [3], 5.96.
As for `O=C1CCCc2c(Cl)cc3[nH]ncc3c2-c2ncc3c(nc(OC[C@@]45CCCN4C[C@H](F)C5)nc3c2F)N2CCCC3(CC(C3)N1)C2` [Example 274], the pIC50 in test [1] is 7.49; in test [2] it was 7.80; in the test with AsPC-1 cells, 5.30; in test [3], 5.75.
Turning to `Cc1cc2[nH]ncc2c2c1CCCCC(=O)N[C@]1(C)CCCCN(C1)c1nc(OC[C@@]34CCCN3C[C@H](F)C4)nc3c(F)c-2ncc13` [Example 280, (26R)-32-fluoro-4-(((2R,7aS)-2-fluorotetrahydro-1H-pyrrolo[1,2-a]pyrrol-7a(5H)-yl)methoxy)-18,26-dimethyl-1,3,5,9,14,15,25-heptaazahexacyclo[24.4.1.1~6,10~.0~2,7~.0~11,19~.0~12,16~]dotriaconta-2,4,6,8,10(32),11,13,16,18-nonaen-24-one], the pIC50 in test [1] is 8.00; in test [2] it was 8.52; with AsPC-1 cells, 6.32; in test [3], 7.00.
The like results for `O=C1N[C@@H]2C[C@H](O)CN(C2)c2nc(OC[C@@]34CCCN3C[C@H](F)C4)nc3c(F)c(ncc23)-c2c(c(Cl)cc3[nH]ncc23)CCCO1` [Example 284, (17R,19S)-9-chloro-30-fluoro-24-(((2R,7aS)-2-fluorotetrahydro-1H-pyrrolo[1,2-a]pyrrol-7a(5H)-yl)methoxy)-19-hydroxy-14-oxa-5,6,16,21,23,25,29-heptaazahexacyclo[24.3.1.1~17,21~.0~2,10~.0~3,7~.0~22,27~]hentriaconta-1(30),2,4,7,9,22,24,26,28-nonaen-15-one] were, in that order, 8.30, 8.70, 6.10 and 7.38.
As to `O=C1NCCCc2c(Cl)cc3[nH]ncc3c2-c2ncc3c(nc(OC[C@@]45CCCN4C[C@H](F)C5)nc3c2F)N2CCCC[C@H](C2)O1` [Example 288], the pIC50 in test [1] is 8.15; in test [2], 8.70; in the test with AsPC-1 cells, 6.37; in test [3], 6.99.
On to `O=C1N[C@H]2C[C@@]3(CCCN(C3)c3nc(OC[C@@]45CCCN4C[C@H](F)C5)nc4c(F)c(ncc34)-c3c(c(Cl)cc4[nH]ncc34)CCO1)C2` [Example 289, 10-chloro-32-fluoro-24-(((2R,7aS)-2-fluorotetrahydro-1H-pyrrolo[1,2-a]pyrrol-7a(5H)-yl)methoxy)-6-oxa-4,13,14,19,23,25,27-heptaazaheptacyclo[25.3.1.1~1,3~.1~18,22~.0~9,17~.0~12,16~.0~21,26~]tritriaconta-9,11,14,16,18(32),19,21,23,25-nonaen-5-one], for which the pIC50 was 8.00 in test [1], 8.22 in test [2], 6.21 with AsPC-1 cells and 6.96 in test [3].
Consider `Cc1cc2[nH]ncc2c2c1CCCOC(=O)N[C@]1(C)CCCCN(C1)c1nc(OC[C@@]34CCCN3C[C@H](F)C4)nc3c(F)c-2ncc13` [Example 292, (26R)-32-fluoro-4-(((2R,7aS)-2-fluorotetrahydro-1H-pyrrolo[1,2-a]pyrrol-7a(5H)-yl)methoxy)-18,26-dimethyl-23-oxa-1,3,5,9,14,15,25-heptaazahexacyclo[24.4.1.1~6,10~.0~2,7~.0~11,19~.0~12,16~]dotriaconta-2,4,6(32),7,9,11,13,16,18-nonaen-24-one], for which the pIC50 in test [1] was 8.40; in test [2], 8.70; with AsPC-1 cells, 6.75; in test [3], 7.77.
The like results for `Fc1c2ncc3c(nc(OC[C@@]45CCCN4C[C@H](F)C5)nc13)N1CCOC[C@H](C1)c1cnn(n1)CCCc1c(Cl)cc3[nH]ncc3c1-2` [Example 298, (1R)-10-chloro-33-fluoro-24-(((2R,7aS)-2-fluorotetrahydro-1H-pyrrolo[1,2-a]pyrrol-7a(5H)-yl)methoxy)-30-oxa-4,5,13,14,19,23,25,27,34-nonaazaheptacyclo[25.4.1.1~2,5~.1~18,22~.0~9,17~.0~12,16~.0~21,26~]tetratriaconta-2(34),3,9,11,14,16,18(33),19,21,23,25-undecaene] were, in that order, 8.15, 8.52, 6.23 and 7.04.
